Source: ChEMBL document CHEMBL5291721, “A preclinical secondary pharmacology resource illuminates target-adverse drug reaction associations of marketed drugs” (Nat Commun, 2023)

Legend:
Estrogen receptor = biological target: T1, Estrogen receptor (Homo sapiens, UniProt P03372)
T1 sequence (P03372 whole entry): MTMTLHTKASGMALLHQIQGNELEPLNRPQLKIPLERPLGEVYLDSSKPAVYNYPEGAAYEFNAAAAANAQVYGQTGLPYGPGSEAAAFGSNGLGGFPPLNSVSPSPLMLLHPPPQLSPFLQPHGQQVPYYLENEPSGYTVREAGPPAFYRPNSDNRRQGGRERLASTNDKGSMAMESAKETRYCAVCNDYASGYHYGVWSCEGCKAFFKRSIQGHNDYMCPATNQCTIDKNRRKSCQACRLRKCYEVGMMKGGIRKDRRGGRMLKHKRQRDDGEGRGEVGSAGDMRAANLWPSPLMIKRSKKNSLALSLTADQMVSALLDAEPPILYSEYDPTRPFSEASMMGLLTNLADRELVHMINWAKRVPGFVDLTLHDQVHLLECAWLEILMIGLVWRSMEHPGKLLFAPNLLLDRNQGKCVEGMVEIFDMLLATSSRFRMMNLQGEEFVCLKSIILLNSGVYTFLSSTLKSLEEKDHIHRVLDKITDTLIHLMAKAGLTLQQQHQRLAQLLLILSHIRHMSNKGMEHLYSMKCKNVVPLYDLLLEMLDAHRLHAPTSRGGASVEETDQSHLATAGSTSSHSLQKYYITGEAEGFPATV

[1] = biological target: T2, Muscarinic acetylcholine receptor M2 (Homo sapiens, UniProt P08172); format: functional, cell-based
T2 sequence (P08172 whole entry): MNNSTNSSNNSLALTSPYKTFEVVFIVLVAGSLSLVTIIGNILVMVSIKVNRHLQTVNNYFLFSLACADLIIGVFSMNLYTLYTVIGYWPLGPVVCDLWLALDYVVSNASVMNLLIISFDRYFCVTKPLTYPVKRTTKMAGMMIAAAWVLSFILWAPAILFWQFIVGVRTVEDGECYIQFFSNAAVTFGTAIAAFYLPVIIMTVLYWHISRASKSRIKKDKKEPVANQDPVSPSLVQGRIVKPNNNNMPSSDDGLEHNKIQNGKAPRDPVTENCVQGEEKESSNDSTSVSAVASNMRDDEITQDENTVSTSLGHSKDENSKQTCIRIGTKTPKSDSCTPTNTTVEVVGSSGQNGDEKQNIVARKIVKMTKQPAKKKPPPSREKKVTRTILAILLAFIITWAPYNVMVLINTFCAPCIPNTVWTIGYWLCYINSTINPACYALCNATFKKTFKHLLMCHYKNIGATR

[2] = biological target: 3',5'-cyclic-AMP phosphodiesterase 4D (Homo sapiens, UniProt Q08499); format: functional
[3] = biological target: T3, Alpha-2A adrenergic receptor (Homo sapiens, UniProt P08913); format: functional, cell-based
T3 sequence (P08913 whole entry): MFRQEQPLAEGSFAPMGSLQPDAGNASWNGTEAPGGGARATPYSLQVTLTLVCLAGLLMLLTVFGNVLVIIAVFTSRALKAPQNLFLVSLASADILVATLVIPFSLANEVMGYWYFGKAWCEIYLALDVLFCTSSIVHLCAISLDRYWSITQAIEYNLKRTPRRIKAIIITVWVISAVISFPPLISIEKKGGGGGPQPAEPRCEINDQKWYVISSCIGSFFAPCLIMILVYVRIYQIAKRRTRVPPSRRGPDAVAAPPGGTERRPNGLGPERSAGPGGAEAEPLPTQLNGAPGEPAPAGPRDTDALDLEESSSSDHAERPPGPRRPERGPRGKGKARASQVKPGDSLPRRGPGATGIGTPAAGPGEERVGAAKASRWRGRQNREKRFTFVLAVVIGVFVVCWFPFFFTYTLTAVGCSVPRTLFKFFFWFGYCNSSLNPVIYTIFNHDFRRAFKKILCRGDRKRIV

[4] = biological target: Delta-type opioid receptor (Homo sapiens, UniProt P41143)
[5] = biological target: T4, Muscarinic acetylcholine receptor M1 (Homo sapiens, UniProt P11229); format: functional
T4 sequence (P11229 whole entry): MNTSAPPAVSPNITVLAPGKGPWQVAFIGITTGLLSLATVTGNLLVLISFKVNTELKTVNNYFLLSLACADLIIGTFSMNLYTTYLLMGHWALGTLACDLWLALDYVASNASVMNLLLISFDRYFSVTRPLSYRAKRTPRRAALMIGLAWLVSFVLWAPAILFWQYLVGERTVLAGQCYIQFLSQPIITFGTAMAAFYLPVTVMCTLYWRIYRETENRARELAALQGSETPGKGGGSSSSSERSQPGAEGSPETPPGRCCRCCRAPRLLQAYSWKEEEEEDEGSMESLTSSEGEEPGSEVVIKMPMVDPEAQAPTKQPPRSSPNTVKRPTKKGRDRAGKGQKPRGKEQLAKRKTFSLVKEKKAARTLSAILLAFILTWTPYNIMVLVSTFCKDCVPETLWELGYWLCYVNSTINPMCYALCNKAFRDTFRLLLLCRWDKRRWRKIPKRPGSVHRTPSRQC

[6] = biological target: T3, Alpha-2A adrenergic receptor; format: functional, cell-based; remark: listed apart in the source
[7] = biological target: T5, Prostaglandin G/H synthase 1 (Rattus norvegicus, UniProt Q63921); format: functional
T5 sequence (Q63921 whole entry): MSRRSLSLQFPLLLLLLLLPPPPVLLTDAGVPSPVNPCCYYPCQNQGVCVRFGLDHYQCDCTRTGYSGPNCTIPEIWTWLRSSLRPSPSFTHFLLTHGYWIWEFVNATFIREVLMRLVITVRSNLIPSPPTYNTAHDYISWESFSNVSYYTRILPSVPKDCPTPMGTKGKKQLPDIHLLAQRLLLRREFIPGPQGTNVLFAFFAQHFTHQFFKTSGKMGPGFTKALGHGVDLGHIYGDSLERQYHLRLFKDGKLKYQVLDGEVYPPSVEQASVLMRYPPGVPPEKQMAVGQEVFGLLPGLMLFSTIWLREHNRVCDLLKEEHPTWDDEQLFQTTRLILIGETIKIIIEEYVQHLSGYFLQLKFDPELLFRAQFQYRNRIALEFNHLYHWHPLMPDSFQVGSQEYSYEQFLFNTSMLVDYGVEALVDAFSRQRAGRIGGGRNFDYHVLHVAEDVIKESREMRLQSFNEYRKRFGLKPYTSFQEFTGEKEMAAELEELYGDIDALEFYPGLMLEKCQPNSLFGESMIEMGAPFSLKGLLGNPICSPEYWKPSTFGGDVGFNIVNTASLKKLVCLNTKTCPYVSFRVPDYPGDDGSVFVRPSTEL
Further: assay procedure not described here.

Sequence of Delta-type opioid receptor (P41143 whole entry): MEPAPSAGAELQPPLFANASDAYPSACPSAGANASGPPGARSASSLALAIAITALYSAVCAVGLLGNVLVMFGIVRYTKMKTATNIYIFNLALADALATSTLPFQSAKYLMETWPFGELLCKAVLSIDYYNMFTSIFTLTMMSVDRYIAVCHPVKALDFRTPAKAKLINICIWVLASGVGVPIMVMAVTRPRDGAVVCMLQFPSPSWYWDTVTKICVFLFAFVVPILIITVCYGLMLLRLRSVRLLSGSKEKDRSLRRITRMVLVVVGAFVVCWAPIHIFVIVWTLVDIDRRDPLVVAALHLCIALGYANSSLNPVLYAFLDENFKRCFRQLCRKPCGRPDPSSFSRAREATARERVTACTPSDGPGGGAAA
Sequence of 3',5'-cyclic-AMP phosphodiesterase 4D (Q08499 whole entry): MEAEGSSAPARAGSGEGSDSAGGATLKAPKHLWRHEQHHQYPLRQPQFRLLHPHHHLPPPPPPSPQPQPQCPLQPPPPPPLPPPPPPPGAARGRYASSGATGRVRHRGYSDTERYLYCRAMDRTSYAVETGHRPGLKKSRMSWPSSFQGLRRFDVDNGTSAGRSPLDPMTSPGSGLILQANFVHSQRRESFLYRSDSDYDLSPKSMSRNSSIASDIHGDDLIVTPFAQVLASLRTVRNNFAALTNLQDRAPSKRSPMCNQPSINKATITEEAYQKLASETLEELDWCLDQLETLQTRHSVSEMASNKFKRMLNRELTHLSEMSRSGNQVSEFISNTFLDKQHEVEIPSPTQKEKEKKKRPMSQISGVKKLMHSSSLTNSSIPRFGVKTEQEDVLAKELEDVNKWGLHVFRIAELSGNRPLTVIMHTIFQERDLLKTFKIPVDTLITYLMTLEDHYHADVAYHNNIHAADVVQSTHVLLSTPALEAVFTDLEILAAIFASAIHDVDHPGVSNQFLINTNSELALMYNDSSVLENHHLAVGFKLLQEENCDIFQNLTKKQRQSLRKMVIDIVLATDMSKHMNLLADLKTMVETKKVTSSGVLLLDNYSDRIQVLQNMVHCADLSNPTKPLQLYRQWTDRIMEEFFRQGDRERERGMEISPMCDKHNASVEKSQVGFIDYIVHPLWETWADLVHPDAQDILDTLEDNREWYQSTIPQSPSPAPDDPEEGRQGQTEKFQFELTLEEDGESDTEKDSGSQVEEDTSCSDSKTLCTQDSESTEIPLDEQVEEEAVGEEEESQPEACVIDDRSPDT

## C=C1c2c(Cl)ccc(O)c2C(=O)C2=C(O)[C@]3(O)C(=O)C(C(N)=O)=C(O)[C@@H](N(C)C)[C@@H]3[C@@H](O)[C@H]12 [MECLOCYCLINE]
Estrogen receptor
  AC50: > 30 µM

## NC(=O)c1nc(F)c[nH]c1=O
Estrogen receptor
  AC50: > 30 µM

## N=C(N)NCc1cccc([123I])c1 [IOBENGUANE I 123]
Estrogen receptor
  AC50: > 30 µM

## O=C(O)COc1nn(Cc2ccccc2)c2ccccc12 [BENDAZAC]
Estrogen receptor
  AC50: > 30 µM

## Cn1c(=O)c2c(ncn2CC(O)CO)n(C)c1=O (stereo not drawn) [DYPHYLLINE]
Estrogen receptor
  AC50: > 30 µM

## CN(C)C(=O)c1nc(CNC(=O)CN)n(-c2ccc(Cl)cc2C(=O)c2ccccc2Cl)n1 [RILMAZAFONE]
Estrogen receptor
  AC50: > 30 µM

## NC(=O)NS(=O)(=O)c1ccc(N)cc1 [SULFACARBAMIDE]
Estrogen receptor
  AC50: > 30 µM

## Cc1ccc([C@@H]2O[C@H](CO)[C@@H](O)[C@H](O)[C@H]2O)cc1Cc1ccc(-c2ccc(F)cc2)s1 [CANAGLIFLOZIN ANHYDROUS]
Estrogen receptor
  AC50: > 30 µM

## CC(C)(C)C(=O)NCCCC(=O)O [PIVAGABINE]
Estrogen receptor
  AC50: > 30 µM

## CN(CC(=O)O)C(=N)N [CREATINE]
Estrogen receptor
  AC50: > 30 µM

## O=C1[C@H]2CCCC[C@H]2C(=O)N1CCCCN1CCN(c2nsc3ccccc23)CC1 [PEROSPIRONE]
Estrogen receptor
  AC50: > 30 µM

## CC(C)(N)C(=O)N[C@H](Cc1c[nH]c2ccccc12)C(=O)N[C@H](Cc1c[nH]c2ccccc12)NC=O [MACIMORELIN]
Estrogen receptor
  AC50: > 30 µM

## C=C(C)[C@@H]1CCC(C)=C[C@H]1c1c(O)cc(CCCCC)cc1O [CANNABIDIOL]
[1]
  AC50: 8 µM
[2]
  AC50: > 30 µM
[3]
  AC50: > 10 µM
[4]
  AC50: > 30 µM
[5]
  AC50: > 30 µM
[6]
  AC50: > 10 µM
[7]
  AC50: 0.771 µM

## Cc1cc(CC(=O)O)n(C)c1C(=O)c1ccc(Cl)cc1 [ZOMEPIRAC]
[1]
  AC50: > 30 µM
[2]
  AC50: > 30 µM
[3]
  AC50: > 30 µM
[4]
  AC50: > 30 µM
[5]
  AC50: > 30 µM
[6]
  AC50: > 30 µM
[7]
  AC50: 16 µM

## O=C(O)c1cc(=O)c2ccccc2o1 [CHROMOCARB]
Estrogen receptor
  AC50: > 30 µM

## CN1CCC[C@H]1c1cccnc1 [NICOTINE]
Estrogen receptor
  AC50: > 30 µM

## CC1(C)O[C@@H]2C[C@H]3[C@@H]4CCC5=CC(=O)CC[C@]5(C)[C@@]4(F)[C@@H](O)C[C@]3(C)[C@]2(C(=O)CCl)O1 [HALCINONIDE]
Estrogen receptor
  AC50: > 30 µM

## CC(C)[N+](C)(CCOC(=O)C1c2ccccc2Oc2ccccc21)C(C)C [PROPANTHELINE]
Estrogen receptor
  AC50: > 30 µM

## CC(=N)N1CC[C@H](SC2=C(C(=O)O)N3C(=O)[C@H]([C@@H](C)O)[C@H]3C2)C1
[1]
  AC50: > 300 µM
[2]
  AC50: > 300 µM
[3]
  AC50: > 300 µM
[4]
  AC50: 290 µM
[5]
  AC50: 68 µM
[6]
  AC50: > 300 µM
[7]
  AC50: 5.1 µM

## Cc1cc2c(OCC(O)CNC(C)C)cccc2[nH]1 (stereo not drawn) [MEPINDOLOL]
Estrogen receptor
  AC50: > 30 µM

## C[C@]12CCC(=O)C=C1CC[C@@H]1[C@@H]2[C@@H](O)C[C@@]2(C)[C@H]1CC[C@]2(O)C(=O)COC(=O)CCC(=O)O [HYDROCORTISONE HEMISUCCINATE ANHYDROUS]
Estrogen receptor
  AC50: > 30 µM

## CCOc1cc(CC(=O)N[C@@H](CC(C)C)c2ccccc2N2CCCCC2)ccc1C(=O)O [REPAGLINIDE]
[1]
  AC50: > 30 µM
[2]
  AC50: 9.6 µM
[3]
  AC50: > 30 µM
[4]
  AC50: > 30 µM
[5]
  AC50: > 30 µM
[6]
  AC50: > 30 µM
[7]
  AC50: > 30 µM

## CCCCCCCCCCC[C@@H](C[C@@H]1OC(=O)[C@H]1CCCCCC)OC(=O)[C@H](CC(C)C)NC=O [ORLISTAT]
Estrogen receptor
  AC50: > 30 µM

## CCCN(CCC)CCc1cccc2c1CC(=O)N2 [ROPINIROLE]
[1]
  AC50: > 30 µM
[2]
  AC50: > 30 µM
[3]
  AC50: > 30 µM
[4]
  AC50: > 30 µM
[5]
  AC50: > 30 µM
[6]
  AC50: 12 µM
[7]
  AC50: > 30 µM

## CO/N=C(\C(=O)N[C@@H]1C(=O)N2C(C(=O)O)=C(COC(N)=O)CS[C@H]12)c1ccco1 [CEFUROXIME]
[1]
  AC50: > 30 µM
[2]
  AC50: > 30 µM
[3]
  AC50: > 30 µM
[4]
  AC50: > 30 µM
[5]
  AC50: > 30 µM
[6]
  AC50: > 30 µM
[7]
  AC50: > 30 µM

## C[C@H]1Oc2cc(cnc2N)-c2c(nn(C)c2C#N)CN(C)C(=O)c2ccc(F)cc21 [LORLATINIB]
[1]
  AC50: > 30 µM
[2]
  AC50: 16 µM
[3]
  AC50: > 30 µM
[4]
  AC50: > 30 µM
[5]
  AC50: > 30 µM
[6]
  AC50: > 30 µM
[7]
  AC50: > 30 µM
